PMC7738508, “A therapeutic combination of two small molecule toxin inhibitors provides broad preclinical efficacy against viper snakebite” (Nature Communications, 2020)
“And” between values parts separate entries of the source, which are not always exact repeats. Identical values can stand only once. Like-named read-outs stand apart in the source and are kept apart here.

What was measured:
[1] = system: SVMP bioactivity of the four active venoms (E. ocellatus, E. carinatus, B. asper, B. arietans); test: in vitro kinetic fluorogenic SVMP assay, viper venoms overall; format: biochemical; settings: four active venoms; marimastat 150 nM to 150 µM, batimastat […] and 150 nM
Description: The SVMP assay measuring metalloproteinase activity and the plasma assay measuring coagulation in the presence or absence of venoms and inhibitors were performed as previously described. The SVMP assay kinetically measured cleavage of a quenched fluorogenic substrate (ES010, R&D Biosystems) by venom in the presence or absence of inhibitors.
Briefly, 10 µl of the substrate (supplied as a 6.2 mM stock) was used per 5 ml reaction buffer (150 mM NaCl, 50 mM Tris-Cl pH 7.5). Reactions consisted of 10 µl of venom ± inhibitors in PBS and 90 µl of substrate. Venoms were used at 1 µg/reaction and final inhibitor concentrations ranged from 150 µM to 150 nM. Samples were preincubated for 30 min at 37 °C and pipetted in triplicate into 384-well plates (Greiner). Thereafter, data was collected on an Omega FLUOstar (BMG Labtech) instrument at an excitation wavelength of 320 nm and emission wavelength of 405 nm at 25 °C for 1 h. The areas under the curve (AUCs) in the 0–40 min interval were calculated for each sample using MARS data analysis software v3.31 (BMG Labtech); this time point was chosen as the time where all fluorescence curves had reached a plateau (maximum fluorescence). For comparing venom-only samples, the means of at least three independent experimental runs for each condition, expressed as AUCs (n ≥ 3), were plotted at each inhibitor concentration with standard error of the mean (SEM). To determine inhibitor efficacy, the AUCs for each of the samples that consisted of venom + inhibitors were transformed and expressed as percentages of the venom-only sample (where the venom was 100%). The negative control (PBS-only) was also expressed relative to the venom, and the variation in background was presented as an interval delineated by the lowest and highest values in the PBS-only samples across concentrations and inhibitors for a specific venom.

[2] = system: procoagulant activity of viper venoms (citrated bovine plasma); test: plasma clotting assay, viper venoms overall; format: biochemical; settings: range across all venoms; lower end of dimercaprol and marimastat ranges given as < 0.15; read-out: IC50, inhibition of procoagulant venom activity
Description: (§1) We used a previously developed plasma clotting assay[35] to measure venom-induced coagulation. Briefly, 100 ng of each venom was incubated at 37 °C for 30 min in the presence or absence of inhibitors (150 µM to 150 nM final concentrations). The final reaction consisted of 10 µl venom ± inhibitors in PBS, 20 µl 20 mM CaCl2, and 20 µl citrated bovine plasma (VWR). The samples were pipetted in triplicate into 384-well plates, and absorbance monitored at 595 nm for 2 h at 25 °C on an Omega FLUOstar instrument. We calculated the maximum clotting velocity of each of the curves as per clot waveform analysis, by calculating the maximum of the first derivative. The means of at least three independent experimental runs for each condition were plotted at each inhibitor concentration with SEMs.

[3] = system: procoagulant activity of Bothrops asper venom (citrated bovine plasma); test: plasma clotting assay; format: biochemical; settings: Bothrops asper venom 100 ng, independent repeats
Description: as §1

[4] = system: procoagulant activity of Echis ocellatus venom (citrated bovine plasma); test: plasma clotting assay; format: biochemical; settings: Echis ocellatus venom 100 ng, independent repeats
Description: as §1

[5] = system: procoagulant activity of Echis carinatus venom (citrated bovine plasma); test: plasma clotting assay; format: biochemical; design: key: max of first derivative of A595 clot curve (max clotting velocity); settings: Echis carinatus venom 100 ng, independent repeats
Description: as §1

[6] = system: coagulopathic activity of Daboia russelii venom (citrated bovine plasma); test: plasma clotting assay; format: biochemical; design: key to maximum clotting velocity: max of first derivative of A595 clot curve (max clotting velocity); settings: for maximum clotting velocity: Daboia russelii venom 100 ng, independent repeats
Description: as §1

E. ocellatus venom = test: in vivo preincubation model of envenoming (i.v.); design: species or system CD-1 mice
Description: All animal experiments were conducted using protocols approved by the Animal Welfare and Ethical Review Boards of the Liverpool School of Tropical Medicine and the University of Liverpool, and performed in specific pathogen-free conditions under licensed approval (PPL #4003718 and #P5846F90) of the UK Home Office and in accordance with the Animal [Scientific Procedures] Act 1986 and institutional guidance on animal care. All experimental animals (18–20 g [4–5 weeks old], male, CD-1 mice, Charles River, UK) were housed in groups of five with environmental enrichment, water and food ad libitum and their health monitored daily during acclimatization. The experimental design was based upon 3R-refined WHO-recommended protocols[28],[41], with animals randomized and observers being blinded to the experimental condition. The median lethal doses (venom LD50) used for E. ocellatus (Nigeria), E. carinatus (India), B. asper (Costa Rica), D. russelii (Sri Lanka) and B. arietans (Nigeria) venoms were previously determined[25],[41],[44],[45].
All experimental doses were prepared to a volume of 200 µl in PBS and incubated at 37 °C for 30 min prior to their intravenous injection via the tail vein. Animals were monitored for 6 h, and euthanized via rising concentrations of CO2 upon observation of previously defined humane end points that are predicators of lethality (e.g., seizure, pulmonary distress, paralysis, hemorrhage)[28]. Deaths, time of death, and survivors were recorded; where death/time of death actually represents the implementation of euthanasia based on defined humane end points.
For all experimental animals described above, blood samples were collected via cardiac puncture immediately post-euthanasia. Plasma was separated by centrifugation at 400 × g for 10 min and stored at −80 °C. We assessed the levels of thrombin-antithrombin complexes (TAT) and soluble thrombomodulin using mouse ELISA Kits (ab137994 and ab209880, Abcam), following the manufacturer’s protocol. All available plasma samples (some were unobtainable via cardiac puncture due to extensive internal hemorrhage) were assessed if the time of death within the group varied, whereas three samples were randomly chosen if the time of death was the same (e.g., either very rapid death within 2 min, or survival until the end of the experiment [360 min or 24 h]). The resulting data was plotted as the median of duplicate measurements for each animal and is presented with standard deviations (SDs).

[7] = format: in vivo, CD-1 mice; settings: no venom; 60 µg of each drug, i.v.; listed as M
Description: For all experimental animals described above, blood samples were collected via cardiac puncture immediately post-euthanasia. Plasma was separated by centrifugation at 400 × g for 10 min and stored at −80 °C. We assessed the levels of thrombin-antithrombin complexes (TAT) and soluble thrombomodulin using mouse ELISA Kits (ab137994 and ab209880, Abcam), following the manufacturer’s protocol. […] The resulting data was plotted as the median of duplicate measurements for each animal and is presented with standard deviations (SDs).

[8] = cited from earlier work
[9] = design: method as in PMID 29735645; settings: cited from earlier work

CNC(=O)[C@@H](NC(=O)[C@H](CC(C)C)[C@H](O)C(=O)NO)C(C)(C)C [marimastat]
neutralization of SVMP bioactivity [1]: complete in vitro neutralization | IC50 [2]: 150 to 1920 nM | maximum clotting velocity ([3]; inhibitor 15 µM): 0.02338 and 0.02609 and 0.02203 | maximum clotting velocity ([3]; inhibitor 150 µM): 0.02696 and 0.02551 and 0.02522 | maximum clotting velocity ([4]; inhibitor 15 µM): 0.0225 and 0.02559 and 0.02899 | maximum clotting velocity ([4]; inhibitor 150 µM): 0.02088 and 0.02471 and 0.02435 | maximum clotting velocity ([5]; inhibitor 15 µM): 0.03177 and 0.03235 | maximum clotting velocity ([5]; inhibitor 150 µM): 0.03353 and 0.03265 and 0.02823 | effect on clotting after complete neutralization of SVMP activity ([6]; D. russelii venom, high doses): revealed clear venom anticoagulant effects | maximum clotting velocity ([6]; inhibitor 15 µM): 0.01941 and 0.01206 and 0.01103 | maximum clotting velocity ([6]; inhibitor 150 µM): 0.005735 and 0.003235 | animals surviving the 6 h experiment (groups of five) (E. ocellatus venom; 45 µg E. ocellatus venom preincubated with 60 µg inhibitor/mouse, i.v.): four | protection against venom-induced lethality (E. ocellatus venom; 45 µg E. ocellatus venom preincubated with 60 µg of each drug, i.v., 6 h): prolonged the survival | thrombin-antithrombin (TAT) levels, range in group (E. ocellatus venom; plasma after euthanasia, E. ocellatus venom + 60 µg of each drug, venom-only mean 1127.3, normal mice 10.2–15.9): 231.2 to 267.9 ng/mL | thrombin-antithrombin (TAT) levels, drug-only control animals [7]: 16.1111 ng/mL and 15.7371 ng/mL and 12.5653 ng/mL | daily doses with no notable side effects ([8]; 28 days, patients with advanced pancreatic cancer): 75 mg | single doses with no notable side effects [8]: up to 800 mg | bidaily doses with no notable side effects ([8]; for 6.5 days): 200 mg | oral bioavailability ([8]; no reference given): 70% | half-life ([8]; oral): 8 to 10 h | time to peak plasma concentrations post-administration ([8]; oral): 1.5 to 3 h | oral bioavailability ([8]; vs parenteral administration of batimastat): excellent oral bioavailability | solubility compared with batimastat [9]: increased solubility
